For test [1], the target named is T1, S1P1 (Homo sapiens (Human), UniProt P21453). Kind of test: S1P1 Binding Assay. To be noted: membranes from CHO cells expressing human S1P1; 33P-S1P ligand; rounded to two digits. Here is the method: Membranes were prepared from CHO cells expressing human S1P1. Cells were dissociated in buffer containing 20 mM HEPES, pH 7.5, 50 mM NaCl, 2 mM EDTA and Protease Inhibitor cocktail (Roche), and disrupted on ice using the Polytron homogenizer. The homogenate was centrifuged at 20,000 rpm (48,000 G) and the supernatant was discarded. The membrane pellets were resuspended in buffer containing 50 mM HEPES, pH 7.5, 100 mM NaCl, 1 mM MgCl2, 2 mM EDTA and stored in aliquots at −80° C. after protein concentration determination. Membranes (2 μg/well) and 0.03 nM final concentration of ^33P-S1P ligand (1 mCi/ml, American Radiolabeled Chemicals) were added to the compound plates. Binding was performed for 45 minutes at room temperature, terminated by collecting the membranes onto GF/B filter plates, and radioactivity was measured by TOPCOUNT®. The competition data of the test compounds over a range of concentrations was plotted as percentage inhibition of radioligand specific binding. The IC50 is defined as the concentration of competing ligand needed to reduce specific binding by 50%.
The results in Table A were rounded to two digits.

The target of test [2] is T1, S1P1. The test can be described thus: Receptor [35S] GTPγS Binding Assay, S1P1. The test is classed as biochemical. The note with it: for EC50: membranes from S1P1/CHO cells, [35S]GTP; for GTPγS S1P3/S1P1: ratio of GTPγS S1P3 EC50 to GTPγS S1P1 EC50, * and ** S1P3 value at detection limit. Here is the method: (§1) Receptor [35S] GTPγS Binding Assays
(§2) Membranes prepared from S1P1/CHO cells or EDG3-Ga15-bla HEK293T cells were added to the compound plate (40 μl/well, final protein 3 μg/well) with MULTIDROP®. [^35S]GTP (1250 Ci/mmol, Perkin Elmer) was diluted in assay buffer: 20 mM HEPES, pH7.5, 10 mM MgCl2, 150 mM NaCl, 1 mM EGTA, 1 mM DTT, 10 μM GDP, 0.1% fatty acid free BSA, and 10 μg/ml Saponin to 0.4 nM. 40 μl of the [^35S] GTP solution was added to the compound plate with a final concentration of 0.2 nM. The reaction was kept at room temperature for 45 min. At the end of incubation, all the mixtures in the compound plate were transferred to a 384 well FB filter plates via GPCR robot system. The filter plate was washed with water 4 times by using the modified manifold Embla plate washer and dried at 60° C. for 45 min. 30 μl of MicroScint 20 scintillation fluid was added to each well for counting at Packard TOPCOUNT®.
A larger value for the GTPγS S1P3 EC50 value indicated less activity in the GTPγS S1P3 binding assay.

Test [3] has as its target S1P3 (Homo sapiens (Human), UniProt Q99500). Kind of test: Receptor [35S] GTPγS Binding Assay, S1P3. The test is classed as biochemical. The note with it: membranes from EDG3-Ga15-bla HEK293T cells; * detection limit 62,500 nM, ** detection limit 32,500 nM. Here is the method:
as §1
as §2, with “Compounds were loaded in a 384 FALCON® v-bottom plate (0.5 μl/well in a 3-fold dilution). Membranes” for “Membranes”, “TOPCOUNT®. EC50 is defined as the agonist concentration that corresponds to 50% of the Ymax (maximal response) obtained for each individual compound tested.” for “TOPCOUNT®.”
A smaller value for GTPγS S1P1 EC50 value indicated greater activity for the compound in the GTPγS S1P1 binding assay. A larger value for the GTPγS S1P3 EC50 value indicated less activity in the GTPγS S1P3 binding assay.

In test [4] the test system is circulating lymphocytes. The test can be described thus: Blood Lymphocyte Reduction Assay (BLR) in Rodents. It counts as in vivo. To be noted: Rattus norvegicus, Lewis rats, oral, 4 hr, vs vehicle group. On the procedure:
Blood Lymphocyte Reduction Assay (BLR) in Rodents
Lewis rats were dosed orally with test article (as a solution or suspension in the vehicle) or vehicle alone (polyethylene glycol 300, “PEG300”). Blood was drawn at 4 hr by retro-orbital bleeding. Blood lymphocyte counts were determined on an ADVIA® 120 Hematology Analyzer (Siemens Healthcare Diagnostics). The results were measured as a reduction in the percentage of circulating lymphocytes as compared to the vehicle treated group at the 4 hr measurement. The results represent the average results of all animals within each treatment group (n=3-4).
The following examples were tested in the Blood Lymphocyte Reduction assay (BLR) described hereinabove and the results are shown in Table D for rats.

SMILES strings stand for the structures. Structures can show the parent of a compound that is named as a salt.

Chain of S1P3 (Q99500 whole entry): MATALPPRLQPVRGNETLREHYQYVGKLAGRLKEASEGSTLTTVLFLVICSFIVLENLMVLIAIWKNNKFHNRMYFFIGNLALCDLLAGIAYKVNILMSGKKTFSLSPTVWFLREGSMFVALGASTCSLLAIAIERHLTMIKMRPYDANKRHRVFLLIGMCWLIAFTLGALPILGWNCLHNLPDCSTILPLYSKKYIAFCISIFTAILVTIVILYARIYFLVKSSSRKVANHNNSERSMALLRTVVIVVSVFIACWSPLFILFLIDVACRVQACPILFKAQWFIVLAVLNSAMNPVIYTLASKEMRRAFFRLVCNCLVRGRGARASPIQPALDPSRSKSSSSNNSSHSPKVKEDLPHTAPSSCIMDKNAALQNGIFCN
T1 sequence (P21453 whole entry): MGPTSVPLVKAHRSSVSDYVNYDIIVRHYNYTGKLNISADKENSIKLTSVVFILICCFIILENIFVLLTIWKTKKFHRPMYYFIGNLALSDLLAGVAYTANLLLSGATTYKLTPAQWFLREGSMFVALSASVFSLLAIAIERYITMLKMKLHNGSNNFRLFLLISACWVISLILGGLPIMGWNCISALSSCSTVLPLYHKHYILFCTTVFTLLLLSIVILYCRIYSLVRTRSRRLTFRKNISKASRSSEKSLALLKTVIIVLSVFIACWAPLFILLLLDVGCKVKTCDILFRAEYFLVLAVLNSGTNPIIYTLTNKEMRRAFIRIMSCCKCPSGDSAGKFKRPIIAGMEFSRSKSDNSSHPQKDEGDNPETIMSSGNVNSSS

For the compound `O=C(NCCC(=O)N1CC(O)C1)C(O)c1ccc(-c2noc(-c3onc(-c4ccccc4)c3C(F)(F)F)n2)cc1` (racemic) [Example 93, (R/S)-2-Hydroxy-N-(3-(3-hydroxyazetidin-1-yl)-3-oxopropyl)-2-(4-(5-(3-phenyl-4-(trifluoromethyl)isoxazol-5-yl)-1,2,4-oxadiazol-3-yl)phenyl)acetamide], the IC50 in test [1] worked out at 2.9 nM. Besides, in test [2], it took 5.8 nM to reach a half-maximal effect (EC50) and the “GTPγS S1P3/S1P1” value was 2060. For the same compound, the EC50 in test [3] was determined as 12000 nM. The compound further displayed an inhibition in vivo at 3 mg/kg in test [4] of 73%.
The compound `O=C(NCCO)C(O)c1ccc(-c2noc(-c3onc(-c4ccccc4)c3C(F)(F)F)n2)cc1` (single isomer, unassigned) [Example 71, 2-Hydroxy-N-(2-hydroxyethyl)-2-(4-(5-(3-phenyl-4-(trifluoromethyl)isoxazol-5-yl)-1,2,4-oxadiazol-3-yl)phenyl)acetamide] came in with an IC50 in test [1] of 0.85 nM. In test [2], the EC50 was determined as 2 nM and the “GTPγS S1P3/S1P1” value is 5234. In test [3], this compound gave an EC50 of 10500 nM. At 1 mg/kg the inhibition in vivo in test [4] was 71%.
Compound `C[C@@H](C#N)NC(=O)C(O)c1ccc(-c2noc(-c3onc(-c4ccccc4)c3C(F)(F)F)n2)cc1` (stereo partly drawn) [Example 40, N-((S)-1-Cyanoethyl)-2-hydroxy-2-(4-(5-(3-phenyl-4-(trifluoromethyl)isoxazol-5-yl)-1,2,4-oxadiazol-3-yl)phenyl)acetamide] displayed an inhibition in vivo at 1 mg/kg in test [4] of 80%.
The compound `CN(C)C(=O)CCNC(=O)C(O)c1ccc(-c2noc(-c3onc(-c4ccccc4)c3C(F)(F)F)n2)cc1` (single isomer, unassigned) [Example 74, 3-(2-Hydroxy-2-(4-(5-(3-phenyl-4-(trifluoromethyl)isoxazol-5-yl)-1,2,4-oxadiazol-3-yl)phenyl)acetamido)-N,N-dimethylpropanamide] returned an IC50 in test [1] of 0.3 nM. For the same compound, in test [2], a half-maximal effect (EC50) was put at 1.9 nM and the “GTPγS S1P3/S1P1” value worked out at 1805. For the same compound, the midpoint of the response in test [3], the EC50, lay at 3430 nM. The inhibition in vivo at 3 mg/kg in test [4] is 84%.
Consider `O=C(NC1CCS(=O)(=O)C1)C(O)c1ccc(-c2noc(-c3onc(-c4ccccc4)c3C(F)(F)F)n2)cc1` (stereo not shown) [Example 31, 2-Hydroxy-2-(4-(5-(3-phenyl-4-(trifluoromethyl)isoxazol-5-yl)-1,2,4-oxadiazol-3-yl)phenyl)-N-(3,3-dioxide-tetrahydrothiophen-3-yl)acetamide], for which, in test [1], the IC50 was 4.5 nM. For the same compound, in test [2], the EC50 turned out to be 11.9 nM and the “GTPγS S1P3/S1P1” value was found to be 802. For the same compound, the EC50 in test [3] was 9540 nM. Also, the inhibition in vivo at 1 mg/kg in test [4] is 54%.
Take `O=C(NCc1ncc[nH]1)C(O)c1ccc(-c2noc(-c3onc(-c4ccccc4)c3C(F)(F)F)n2)cc1` (single isomer, unassigned) [Example 17, N-((1H-Imidazol-2-yl)methyl)-2-hydroxy-2-(4-(5-(3-phenyl-4-(trifluoromethyl)isoxazol-5-yl)-1,2,4-oxadiazol-3-yl)phenyl)acetamide-TFA]: the IC50 in test [1] was determined as 6.7 nM. Further, the results for the EC50 in test [2] and in test [3] were 6.7 nM and 6910 nM, respectively. For the same compound, the “GTPγS S1P3/S1P1” value in test [2] stood at 1031. Moreover, the inhibition in vivo at 3 mg/kg in test [4] was 69%.
In turn, `CC(C)(O)CNC(=O)CCNC(=O)C(O)c1ccc(-c2noc(-c3onc(-c4ccccc4)c3C(F)(F)F)n2)cc1` (single isomer, unassigned) [Example 6, 3-(2-Hydroxy-2-(4-(5-(3-phenyl-4-(trifluoromethyl)isoxazol-5-yl)-1,2,4-oxadiazol-3-yl)phenyl)acetamido)-N-(2-hydroxy-2-methylpropyl)propanamide] displayed an IC50 in test [1] of 0.46 nM. In addition, in test [2], a half-maximal response (EC50) required 0.67 nM and the “GTPγS S1P3/S1P1” value is 4679. In addition, in test [3], a half-maximal response (EC50) required 3130 nM. In test [4], this compound gave an inhibition in vivo at 3 mg/kg of 73%.
In turn, `N#CC1(NC(=O)C(O)c2ccc(-c3noc(-c4onc(-c5ccccc5)c4C(F)(F)F)n3)cc2)CC1` (single isomer, unassigned) [Example 41, N-(1-Cyanocyclopropyl)-2-hydroxy-2-(4-(5-(3-phenyl-4-(trifluoromethyl)isoxazol-5-yl)-1,2,4-oxadiazol-3-yl)phenyl)acetamide] returned an IC50 in test [1] of 2.6 nM. In test [2], the EC50 worked out at 15.7 nM and the “GTPγS S1P3/S1P1” value is recorded as 232. It took 3640 nM to reach a half-maximal effect in test [3] (EC50). In test [4], the inhibition in vivo at 1 mg/kg was determined as 80%.
In the case of `O=C(NCc1cc2ccccc2[nH]1)C(O)c1ccc(-c2noc(-c3onc(-c4ccccc4)c3C(F)(F)F)n2)cc1` (racemic) [Example 86, (R/S)-N-((1H-Indol-2-yl)methyl)-2-hydroxy-2-(4-(5-(3-phenyl-4-(trifluoromethyl)isoxazol-5-yl)-1,2,4-oxadiazol-3-yl)phenyl)acetamide], in test [1], the IC50 turned out to be 180 nM. For the same compound, in test [2], the concentration giving a half-maximal response (EC50) is 1560 nM and the “GTPγS S1P3/S1P1” value is > 20**. Moreover, in test [3], the EC50 was more than 31200 nM.
In test [1], `Cc1nnc(CNC(=O)C(O)c2ccc(-c3noc(-c4onc(-c5ccccc5)c4C(F)(F)F)n3)cc2)o1` (single isomer, unassigned) [Example 10, 2-Hydroxy-N-((5-methyl-1,3,4-oxadiazol-2-yl)methyl)-2-(4-(5-(3-phenyl-4-(trifluoromethyl)isoxazol-5-yl)-1,2,4-oxadiazol-3-yl)phenyl)acetamide] had an IC50 of 2 nM. In test [2], the EC50 amounted to 4.7 nM and the “GTPγS S1P3/S1P1” value amounted to 2795. For the same compound, a half-maximal effect in test [3] (EC50) was put at 13100 nM.
For `CCN(C)C(=O)C(O)c1ccc(-c2noc(-c3onc(-c4ccccc4)c3C(F)(F)F)n2)cc1` (racemic) [Example 24, (R/S)-N-Ethyl-2-hydroxy-N-methyl-2-(4-(5-(3-phenyl-4-(trifluoromethyl)isoxazol-5-yl)-1,2,4-oxadiazol-3-yl)phenyl)acetamide], in test [1], the IC50 was determined as 350 nM. In test [2], the EC50 came to 1050 nM and the “GTPγS S1P3/S1P1” value was > 60*. Also, the EC50 in test [3] was more than 62500 nM.
`Cn1cccc1CNC(=O)C(O)c1ccc(-c2noc(-c3onc(-c4ccccc4)c3C(F)(F)F)n2)cc1` (racemic) [Example 132, (R/S)-2-hydroxy-N-((1-methyl-1H-pyrrol-2-yl)methyl)-2-(4-(5-(3-phenyl-4-(trifluoromethyl)isoxazol-5-yl)-1,2,4-oxadiazol-3-yl)phenyl)acetamide]: in test [1], the IC50 was 42 nM. Also, the EC50 in test [2] was found to be 636 nM; in test [3], 17100 nM. Moreover, the “GTPγS S1P3/S1P1” value in test [2] was determined as 27.
